Laboratory results reported in patent US20130296250A1, “METHOD FOR TREATMENT OF PSORIASIS” (priority 2011, published 2013).
The star is where a group is joined. Myristoyl = CCCCCCCCCCCCCC(=O)*

Columns and labels:
[1] = system: Keratinocytes derived from newborn C57BL/6 mice skin; experiment: Cytokine secretion in LPS activated keratinocytes, Luminex; format: cell-based; details: peptide inhibitors, FIGS. 19 to 23
Excerpt: Resident skin cells and immunological cells (both resident and infiltrating cells) interact in the inflammatory psoriatic process by cell-cell interactions and cytokine secretion. Thus, HO/02/10 was examined for its direct effect on the secretion of pro-inflammatory, chemoattractant and immunological pathway related cytokines form both keratinocytes and immune cells such as macrophages and dendritic cells.
The results of FIGS. 17A and 17B show the effect of HO/02/10 on cytokine secretion in keratinocytes. Keratinocytes were derived from newborn C57BL/6 mice skin. The cells were incubated for 5 days in 24 wells plates. Cells were then treated with DPBS−/−, LPS (100 ng/ml), or HO/02/10 (1 μg/ml)+LPS ([…]). Medium containing secreted cytokines was collected after 48 hr and analyzed using a Luminex system.

[2] = system: TNFα activated keratinocytes; experiment: Cytokine secretion in TNFα activated keratinocytes; format: cell-based; details: peptide inhibitors, FIGS. 19 to 23
[3] = system: IL-17A activated keratinocytes; experiment: Cytokine secretion in IL-17A activated keratinocytes; format: cell-based; details: peptide inhibitors, FIGS. 24 to 27
[4] = system: C57BL/6J mouse; experiment: Macrophage infiltration in wound, Iba-1 staining; format: in vivo; details: daily treatment, five days post-wounding
Procedure: The effect of MPDY-1 on macrophage infiltration was also shown by Iba-1 staining. Iba-1 is a general marker for macrophages. […] As above, a two-cm longitudinal incision was done on the upper back of a C57BL/6J mouse. Following wounding, a sterile pad was sutured to the mouse's skin. Animals were treated daily with MPDY-1 (n=6). Five days post-wounding, when inflammatory phase reaches its peak, the mice were sacrificed, skin tissues were embedded in paraffin and immunohistochemical staining was performed utilizing anti-Iba-1 antibodies.

[5] = system: C57BL/6J mouse; experiment: Macrophage activation in wound, MAC-2 staining; format: in vivo; details: daily treatment, 5 days; 1, 10 and 100 micrograms per mL
Procedure: The effect of MPDY-1 on macrophage activation was also shown by MAC-2 staining. MAC-2 is a specific marker for activated macrophages. […] A two-cm longitudinal incision was done as described above. Animals were treated daily with DPBS^−/− (Control) or MPDY-1 in the specified concentrations (n=6). After 5 days immunohistochemical staining was performed utilizing anti-MAC-2 antibodies. Bar […]. (*p(control Vs. MPDY-1 10 μg)=0.0028).

| Substance | cytokine secretion from LPS activated keratinocytes [1] | cytokine secretion from TNFα activated keratinocytes [2] | cytokine secretion from IL-17A activated keratinocytes [3] | macrophage infiltration (Iba-1 positive cells per field) [4] | activation of macrophages (MAC-2 positive cells per field) [5] |
| --- | --- | --- | --- | --- | --- |
| H-Phe-Ala-Arg-Lys-Gly-Ala-Leu-Arg-Gln-OH-acetate salt (H-FARKGALRQ-OH; also: acetate salt) [PDY-1] | decrease cytokine secretion | decrease cytokine secretion | decrease cytokine secretion | – | – |
| Myristoyl-Phe-Ala-Arg-Lys-Gly-Ala-Leu-Arg-Gln-OH (Myristoyl-FARKGALRQ-OH; SMILES CCCCCCCCCCCCCC(=O)N[C@@H](Cc1ccccc1)C(=O)N[C@@H](C)C(=O)N[C@@H](CCCNC(=N)N)C(=O)N[C@@H](CCCCN)C(=O)NCC(=O)N[C@@H](C)C(=O)N[C@@H](CC(C)C)C(=O)N[C@@H](CCCNC(=N)N)C(=O)N[C@@H](CCC(N)=O)C(=O)O) [MPDY-1] | decrease cytokine secretion | decrease cytokine secretion | decrease cytokine secretion | dose dependent effect | significantly inhibited |
| Myristoyl-Phe-Ala-Arg-Lys-Gly-Ala-Leu-OH (Myristoyl-FARKGAL-OH; SMILES CCCCCCCCCCCCCC(=O)N[C@@H](Cc1ccccc1)C(=O)N[C@@H](C)C(=O)N[C@@H](CCCNC(=N)N)C(=O)N[C@@H](CCCCN)C(=O)NCC(=O)N[C@@H](C)C(=O)N[C@@H](CC(C)C)C(=O)O) [MPDY-1 sh] | decrease cytokine secretion | decrease cytokine secretion | decrease cytokine secretion | – | – |
